Reference: patent US9409952B2, “Peptide-compound cyclization method” (Chugai Seiyaku Kabushiki Kaisha, priority 2011, dated 2016)
Positions of bridges follow the written chain, without caps; N, C: chain ends. Non-standard residues stand in square brackets, D forms with d. Residues, ends and D or L forms follow the SMILES beside them. *: point of attachment. NMeF = CN[C@@H](Cc1ccccc1)C(=O)O; NMeI = CC[C@H](C)[C@H](NC)C(=O)O; NMeL = CN[C@@H](CC(C)C)C(=O)O; NMeA = CN[C@@H](C)C(=O)O; Piperidide = C1CCN(*)CC1; Sar = CNCC(=O)O; tBu = CC(C)(C)*

Columns and labels:
[1] = Serum stability test in mouse serum; type: in vitro ADME; settings: both sexes, pH 7.4, two hours, read-out: Serum stability t1/2 (Mouse)
Method: (§1) The obtained compound was metabolically reacted at a concentration of 2 uM with mouse serum (male/female mixed, Valley Biomedical, USA) (adjusted to pH 7.4 with 33.5 mM HEPES buffer) for two hours. Deproteinization treatment with acetonitrile was provided over time, the amount of the remaining unchanged compound was analyzed using LC/MS, and the metabolic half-life (t1/2) was calculated. A microsome solution prepared at 0.5 mg protein/mL from mouse hepatic microsome and small intestinal microsome (male, XENOTECH, USA) using 100 mM phosphate buffer (pH 7.4) was metabolically reacted with the compound at a concentration of 1 uM for 30 minutes in the presence or absence of NADPH. Deproteinization treatment with acetonitrile was provided over time, the amount of the remaining unchanged compound was analyzed using LC/MS, and the hepatic-intrinsic clearance (CLh, int) and the small intestinal-intrinsic clearance (CLg, int) were calculated (Table 7). Such peptides were sufficiently slowly metabolized by hydrolysis with peptidases or the like in mouse sera and microsomes, contrary to peptides composed of natural amino acids having low lipophilicity.

[2] = Metabolic stability in mouse hepatic microsome; type: in vitro ADME; settings: for Hepatic Microsome CLh, int (Mouse) In the absence of NADPH / microsomal CLint at 1 uM: 0.5 mg protein/mL, 1 uM, 30 minutes; for Hepatic Microsome CLh, int (Mouse) In the absence of NADPH: without NADPH; for microsomal CLint at 1 uM: male, mouse, liver microsomes, pH 7.4, with NADPH, read-out: Hepatic Microsome CLh, int (Mouse) In the presence of NADPH
Method: as §1
Metabolic stability tests were carried out in the same manner as shown in 2-1.

Row | SMILES | half-life at 2 uM [1] [h] | Hepatic Microsome CLh, int (Mouse) In the absence of NADPH [2] [ul/min/mg Protein] | Mouse Hepatic Microsome CLh, int ([2]; Table 9, thioether versus sulfoxide) [ul/min/mg Protein] | microsomal CLint at 1 uM [2] [µL/min/mg]
1 | CC[C@H](C)[C@H]1C(=O)N[C@H](C(=O)N2CCCCC2)CSCC(=O)N(C)[C@@H](C)C(=O)N[C@@H](Cc2ccccc2)C(=O)N(C)[C@@H](CC(C)C)C(=O)N[C@@H]([C@@H](C)O)C(=O)N(C)CC(=O)N(C)[C@@H](CC(C)C)C(=O)N[C@@H](COC(C)(C)C)C(=O)N1C [Compound P-111, Ac*-MeAla-Phe-MeLeu-Thr-MeGly-MeLeu-Ser(tBu)-MeIle-Cys*-piperidine] ({CH2CO}-[NMeA]F[NMeL]T[Sar][NMeL]S(tBu)[NMeI]C-Piperidide; thioether N-9) | > 60 | 0 | 76.4 | 76.4
2 | CC[C@H](C)[C@H]1C(=O)N[C@H](C(=O)N2CCCCC2)CSCC(=O)N[C@@H](Cc2ccccc2)C(=O)N(C)[C@@H](CC(C)C)C(=O)N[C@@H]([C@@H](C)O)C(=O)N(C)CC(=O)N(C)[C@@H](CC(C)C)C(=O)N[C@@H](COC(C)(C)C)C(=O)N1C [Compound P-107, Ac*-Phe-MeLeu-Thr-MeGly-MeLeu-Ser(tBu)-MeIle-Cys*-piperidine] ({CH2CO}-F[NMeL]T[Sar][NMeL]S(tBu)[NMeI]C-Piperidide; thioether N-8) | > 60 | 10.1 | – | 111
3 | CC(C)C[C@H]1C(=O)N[C@@H](COC(C)(C)C)C(=O)N[C@H](C(=O)N2CCCCC2)CSCC(=O)N(C)[C@@H](Cc2ccccc2)C(=O)N(C)[C@@H](C)C(=O)N[C@@H](Cc2ccccc2)C(=O)N(C)[C@@H](CC(C)C)C(=O)N[C@@H]([C@@H](C)O)C(=O)N(C)CC(=O)N1C [Compound P-110, Ac*-MePhe-MeAla-Phe-MeLeu-Thr-MeGly-MeLeu-Ser(tBu)-Cys*-piperidine] ({CH2CO}-[NMeF][NMeA]F[NMeL]T[Sar][NMeL]S(tBu)C-Piperidide; thioether N-9) | > 60 | 6.1 | – | 163
4 | CC(C)C[C@H]1C(=O)N[C@@H](COC(C)(C)C)C(=O)N[C@H](C(=O)N2CCCCC2)CSCC(=O)N(C)[C@@H](Cc2ccccc2)C(=O)N(C)[C@@H](C)C(=O)N(C)[C@@H](Cc2ccccc2)C(=O)N(C)[C@@H](CC(C)C)C(=O)N[C@@H]([C@@H](C)O)C(=O)N(C)CC(=O)N1C [Compound P-108, Ac*-MePhe-MeAla-MePhe-MeLeu-Thr-MeGly-MeLeu-Ser(tBu)-Cys*-piperidine] ({CH2CO}-[NMeF][NMeA][NMeF][NMeL]T[Sar][NMeL]S(tBu)C-Piperidide; thioether N-9) | > 60 | 5.2 | – | 72.3
5 | CC(C)C[C@H]1C(=O)N[C@@H](COC(C)(C)C)C(=O)N[C@H](C(=O)N2CCCCC2)CSCC(=O)N(C)[C@@H](C)C(=O)N[C@@H](Cc2ccccc2)C(=O)N(C)[C@@H](CC(C)C)C(=O)N[C@@H]([C@@H](C)O)C(=O)N(C)CC(=O)N1C [Compound P-106, Ac*-MeAla-Phe-MeLeu-Thr-MeGly-MeLeu-Ser(tBu)-Cys*-piperidine] ({CH2CO}-[NMeA]F[NMeL]T[Sar][NMeL]S(tBu)C-Piperidide; thioether N-8) | > 60 | 1.9 | – | 151
6 | CC(C)C[C@H]1C(=O)N[C@H](C(=O)N2CCCCC2)CSCC(=O)N(C)[C@@H](Cc2ccccc2)C(=O)N(C)[C@@H](C)C(=O)N[C@@H](Cc2ccccc2)C(=O)N(C)[C@@H](CC(C)C)C(=O)N[C@@H]([C@@H](C)O)C(=O)N(C)CC(=O)N1C [Compound P-105, Ac*-MePhe-MeAla-Phe-MeLeu-Thr-MeGly-MeLeu-Cys*-piperidine] ({CH2CO}-[NMeF][NMeA]F[NMeL]T[Sar][NMeL]C-Piperidide; thioether N-8) | > 60 | 5.1 | – | 278
